Assay [1] relates to osteoclast differentiation. The assay is described as follows: Inhibitory effects on osteoclast differentiation, co-culture of bone marrow cells and osteoblast, TRAP staining (Example 1). Type of assay: cell-based, mice. The following applies: 7-day co-culture; for inhibition at 0.0032 µM / inhibition at 0.016 µM / inhibition at 0.08 µM / inhibition at 0.4 µM / IC50: Mus musculus, Osteoclast, 168 h; for inhibition at 0.0032 µM / inhibition at 0.016 µM / inhibition at 0.08 µM / inhibition at 0.4 µM: read-out: % inhibitory action. On the procedure: The effects of each test substance on osteoclast proliferation and differentiation process were evaluated via co-culture with osteoblast.
Tibia and Femora were aseptically ectomized from male ddY mice of 6-8 weeks to harvest bone marrow cells by using a syringe (21 G, Korea Green Cross).
The bone marrow cells were suspended in 5 mL α-MEM medium (Gibco BRL Co.) containing sodium bicarbonate (2.0 g/L), streptomycin (100 mg/L) and penicillin ([…]). The harvested cells were centrifuged at 800×g for 5 minutes to collect the whole quantity. To remove the red blood cells within bone marrow cells, 3 mL of Tris HCl (0.83% NH4Cl, pH7.5) was added and well mixed. After centrifuging the above cells, the numbers of bone marrow cells were counted and then the bone marrow cells were immediately used for a co-culture system with osteoblast.
The calvaria were aseptically ectomized from neonate ICR mice of 1-2 days, washed with PBS solution and incubated with a mixture of enzyme solutions (0.2% collagenase and 0.1% dispase) at 37° C. gentle shaker. This procedure was sequentially repeated (10, 10, 10, 20, 20 and 20 minutes), and then the calvaria cells having the characteristics of osteoblast, were mostly released from III˜VI digestion groups, were collected and washed with the medium (serum-free α-MEM). The washed cells were cultivated in α-MEM medium containing 10% FBS for 2-3 days. After subculturing, these cells were used for this experiment, and diluted to reach the concentration of 1×10^6 cells/mL for storage at −70° C.
The volume of final specimen added to the medium was determined at the ratio of 1:1000.
Bone marrow cells, so prepared from the above No. 1, and osteoblast from calvaria were co-cultured for osteoclast differentiation. Both bone marrow cells (25,000 cells/cm^2) and osteoblast (10,000 cells/cm^2) were plated on a 96 well plate in α-MEM medium containing 10% FBS with the specimen, and then the reaction mixture was cultured for 7 days. Some differentiation factors, such as dexamethasone (10^−6M) and vitamin D3(10^−9M), were also continuously added to the medium from the first day of cultivation. The media were changed with fresh media containing a mixture of specimens and differentiation factors every 2-3 day.
TRAP was used as a marker to measure osteoclast in consideration of its characteristics showing a positive reaction to TRAP staining solution. TRAP staining solution was prepared in a manner such that 5 mg of naphtol AS-MS phosphate (sigma N-4875), a substrate and 25 mg of coloring agent (Fast Red Violet LB salt) were dissolved in N,N-dimethylformamide (about 0.5 mL) and with the addition of 0.1N NaHCO3 buffer solution (50 mL) containing 50 mM of tartaric acid. The reaction mixture was stored in a refrigerator prior to use.
After a 7-day culture, the medium was removed from the wells and then the cells were washed once with PBS solution and fixed to PBS containing 10% formalin for 2-5 minutes. The cells were also fixed in a mixed solution, ethanol and acetone (1/1), for about 1 minute, and dried off. The cells were further treated by TRAP staining solution for 15 minutes and washed with PBS to measure the experimental results with the staining degree of cells under a microscopic examination.
The counts of osteoclast only with more than 3 nuclei showing the TRAP-positive reaction were calculated under a microscopic examination, and each test was reconfirmed over three times to insure more reliable data.
As shown in the following table 1, the inhibitory effect of each experimental group on the differentiation of osteoclast versus controls were expressed by inhibitory percentage value, and 50% inhibitory concentration on osteoclast differentiation was calculated as IC50.

A further assay concerns MC3T3-E1 cells. Briefly: Alkaline phosphatase (ALP) activity to measure osteoblast activity (Example 4). Type of assay: cell-based. The following applies: 10^−8M; two weeks culture. As for the experimental part: This experiment is designed to evaluate the differentiation and activity of osteoblast via ALP activity having a close relationship with osteoblastic bone formation (Y. Wada et al., Bone, 22,479-485, 1998).
MC3T3-E1 cells (3,000 cells/well) derived from osteoblast were placed on a 96 well plate and after 24-hour culture the media were changed with fresh medium containing various differentiation factors such as ascorbic acid (100 ug/ml) and β-glycerophosphatic acid (5 mM). The medium was also treated with test substances and the medium, containing differentiation factors and the specimen, was changed with a fresh medium every 3 days.
The culture was terminated after two weeks to measure ALP activity. With the removal of the supernatant, 0.5% Triton X-100 were added for the lysis of cells. 100 ul of p-nitrophenylphosphate (1.21 mM) was added to 50 ul of above mixture. The mixture was incubated at 37° C. for 30 mins and with the addition of 0.2N sodium hydroxide (50 ul), the reaction was terminated. The standard curve was indicated at the absorbance of 405 nm using p-nitrophenol as a standard material and then the absorbance of test substances, so reacted, was measured to observe the production amount of p-nitrophenol.
As shown in the following table 4, the units of ALP activity were determined as the amount of p-nitrophenol (nM) produced per time (per min or hour)/1 ug protein after measuring the amounts of protein contained in the reaction mixture of each test substance.

“4-[5-[4-(aminoiminomethyl)phenoxy]pentoxy]-3-methoxy-N,N-bis(1-methylethyl)benzamide maleic acid [CGS-25019C]”: the “% inhibitory action” value in assay [1] (3.2 nM) is listed as −8.9%; in assay [1] (16 nM), 8.3%; in assay [1] (80 nM), 0.0%; in assay [1] (400 nM) it was 17.7%. In addition, the “ALP activity (units)” value in the assay with MC3T3-E1 cells is listed as 15.0 units.

For `Cc1nc(-c2ccc(OCCCCCOc3ccc(C(=N)NO)cc3)cc2)c(C(C)C)s1` [DW1350, N-hydroxy-4-{5-[4-(5-isopropyl-2-methyl-1,3-thiazol-4-yl)phenoxy]pentoxy}-benzamidine], the inhibition at 0.0032 µM in assay [1] (3.2 nM) stood at 1%. Moreover, in assay [1] (16 nM), the inhibition at 0.016 µM was 68.8%. The inhibition at 0.08 µM in assay [1] (80 nM) was 82.3%. In assay [1] (400 nM), the inhibition at 0.4 µM is 88%. In addition, the IC50 in assay [1] was 19.9 nM. Further, in the assay on MC3T3-E1 cells, the “ALP activity (units)” value is recorded as 19.8 units.

`Cc1nc(-c2ccc(OCCCCCOc3ccc(C(=N)N)cc3)cc2)c(C(C)C)s1` [DW1352, 4-{5-[4-(5-isopropyl-2-methyl-1,3-thiazol-4-yl)phenoxy]pentoxy}-benzamidine]: the inhibition at 0.0032 µM in assay [1] (3.2 nM) came out at 50%. Further, the inhibition at 0.016 µM in assay [1] (16 nM) came to 81.8%. Besides, the inhibition at 0.08 µM in assay [1] (80 nM) was 83.9%. In addition, the inhibition at 0.4 µM in assay [1] (400 nM) stood at 92.7%. For the same compound, in assay [1], inhibition was half-maximal at 1.25 nM (IC50). The “ALP activity (units)” value in the assay with MC3T3-E1 cells worked out at 17.1 units.

For `COc1cc(C(=O)N(C(C)C)C(C)C)ccc1OCCCCOc1ccc2c(N)noc2c1` [HS1141, N,N-diisopropyl-4-[4-(3-aminobenzo[d]isooxazole-6-yloxy)butoxy]-3-methoxybenzamide], the inhibition at 0.0032 µM in assay [1] (3.2 nM) is 1.2%. For the same compound, the inhibition at 0.016 µM in assay [1] (16 nM) stood at 3%. Further, in assay [1] (80 nM), the inhibition at 0.08 µM is 12%. The inhibition at 0.4 µM in assay [1] (400 nM) was 23.5%. Also, the “ALP activity (units)” value in the assay on MC3T3-E1 cells is recorded as 15.2 units.

For orientation: IC50 means the concentration needed to halve the response being measured.
